According to patent US20260042731A1, “(2,4-DICHLOROPHENOXY)ACETIC ACID ANALOGS” (CORTEVA AGRISCIENCE LLC, priority 2022, published 2026):
Read-outs that look alike come from different tables or passages of the source.

Key:
[1] = test system: Abutilon theophrasti (ABUTH), velvetleaf; assay: Postemergence herbicide evaluation, growth of Abutilon theophrasti (ABUTH); format: in vivo; conditions: Abutilon theophrasti, post-emergence, read-out: AVE. ABUTH
[2] = test system: Amaranthus rudis (AMATA), tall water hemp; assay: Postemergence herbicide evaluation, growth of Amaranthus rudis (AMATA); format: in vivo; conditions: Amaranthus tuberculatus, post-emergence, read-out: Ave. AMATA
[3] = test system: Ambrosia artemisiifolia (AMBEL), common ragweed; assay: Postemergence herbicide evaluation, growth of Ambrosia artemisiifolia (AMBEL); format: in vivo; conditions: Ambrosia artemisiifolia, post-emergence, read-out: AVE. AMBEL
[4] = Volatility of compounds measured by thermogravimetric analysis (TGA); format: physicochemical
[5] = test system: Chenopodium album (CHEAL), common lambsquarters; assay: Postemergence herbicide evaluation, growth of Chenopodium album (CHEAL); format: in vivo; conditions: Chenopodium album, post-emergence, read-out: Ave. CHEAL
[6] = test system: glyphosate resistant Conyza canadensis (L.) (ERICA), horseweed; assay: Postemergence herbicide evaluation, growth of Conyza canadensis (ERICA); format: in vivo; conditions: Erigeron canadensis, post-emergence, read-out: Ave. ERICA
[7] = test system: weeds (ABUTH, AMATA, AMBEL, CHEAL, ERICA); assay: Postemergence herbicide evaluation, overall average % weed control across ABUTH, AMATA, AMBEL, CHEAL, ERICA; format: in vivo; conditions: post-emergence, read-out: Overall Ave % Weed Control
[8] = 168 h, 280 g ae/ha, 7 DAA, percent reduction in plant size relative to untreated control
[9] = 168 h, 560 g ae/ha, 7 DAA, percent reduction in plant size relative to untreated control
[10] = 336 h, 280 g ae/ha, 14 DAA, percent reduction in plant size relative to untreated control
[11] = 336 h, 560 g ae/ha, 14 DAA, percent reduction in plant size relative to untreated control
[12] = 504 h, 280 g ae/ha, 21 DAA, percent reduction in plant size relative to untreated control
[13] = 504 h, 560 g ae/ha, 21 DAA, percent reduction in plant size relative to untreated control
[14] = 168 h, 280 g ae/ha, 7 DAA, average over the five weeds
[15] = 168 h, 560 g ae/ha, 7 DAA, average over the five weeds
[16] = 336 h, 280 g ae/ha, 14 DAA, average over the five weeds
[17] = 336 h, 560 g ae/ha, 14 DAA, average over the five weeds
[18] = 504 h, 280 g ae/ha, 21 DAA, average over the five weeds
[19] = 504 h, 560 g ae/ha, 21 DAA, average over the five weeds

For N#C/C(=N\OC(=O)COc1ccc(Cl)cc1Cl)c1ccccc1 [Compound A6, N-(2-(2,4-Dichlorophenoxy)acetoxy)benzimidoyl cyanide], the pest or weed control at 280 g/ha ([1]; 168 h) was 78%, the pest or weed control at 560 g/ha ([1]; 168 h) was 90% and the pest or weed control at 280 g/ha ([1]; 336 h) was 75%. It also gave a pest or weed control at 560 g/ha ([1]; 336 h) of 85%, a pest or weed control at 280 g/ha ([1]; 504 h) of 80% and a pest or weed control at 560 g/ha ([1]; 504 h) of 94%. The pest or weed control at 280 g/ha ([2]; 168 h) was 80%, the pest or weed control at 560 g/ha ([2]; 168 h) was 75% and the pest or weed control at 280 g/ha ([2]; 336 h) was 83%. The pest or weed control at 560 g/ha ([2]; 336 h) was 78%, the pest or weed control at 280 g/ha ([2]; 504 h) was 73% and the pest or weed control at 560 g/ha ([2]; 504 h) was 81%. The pest or weed control at 280 g/ha ([3]; 168 h) was 68%, the pest or weed control at 560 g/ha ([3]; 168 h) was 70% and the pest or weed control at 280 g/ha ([3]; 336 h) was 93%. The pest or weed control at 560 g/ha ([3]; 336 h) was 95%, the pest or weed control at 280 g/ha ([3]; 504 h) was 98% and the pest or weed control at 560 g/ha ([3]; 504 h) was 100%. For the same compound, the “TGA Data (rate of weight loss, volatility)” value [4] was 7.2 µg/min, the pest or weed control at 280 g/ha ([5]; 168 h) was 68% and the pest or weed control at 560 g/ha ([5]; 168 h) was 68%. For the same compound, the pest or weed control at 280 g/ha ([5]; 336 h) was 83%, the pest or weed control at 560 g/ha ([5]; 336 h) was 78% and the pest or weed control at 280 g/ha ([5]; 504 h) was 94%. The pest or weed control at 560 g/ha ([5]; 504 h) was 73%, the pest or weed control at 280 g/ha ([6]; 168 h) was 65% and the pest or weed control at 560 g/ha ([6]; 168 h) was 73%. It also gave a pest or weed control at 280 g/ha ([6]; 336 h) of 88%, a pest or weed control at 560 g/ha ([6]; 336 h) of 88% and a pest or weed control at 280 g/ha ([6]; 504 h) of 98%. The pest or weed control at 560 g/ha ([6]; 504 h) was 98%, the pest or weed control at 280 g/ha ([7]; 168 h) was 72% and the pest or weed control at 560 g/ha ([7]; 168 h) was 75%. For the same compound, the pest or weed control at 280 g/ha ([7]; 336 h) was 84%, the pest or weed control at 560 g/ha ([7]; 336 h) was 84% and the pest or weed control at 280 g/ha ([7]; 504 h) was 88%. For the same compound, the pest or weed control at 560 g/ha ([7]; 504 h) was 89%.

Work on CCOC(=O)C(=NOC(=O)COc1ccc(Cl)cc1Cl)C(=O)OCC [Compound A7, Diethyl 2-((2-(2,4-dichlorophenoxy)acetoxy)imino)malonate] yielded a pest or weed control at 280 g/ha [1, 8] of 75%, a pest or weed control at 560 g/ha [1, 9] of 88% and a pest or weed control at 280 g/ha [1, 10] of 83%. It also gave a pest or weed control at 560 g/ha [1, 11] of 89%, a pest or weed control at 280 g/ha [1, 12] of 92% and a pest or weed control at 560 g/ha [1, 13] of 94%. The pest or weed control at 280 g/ha [2, 8] was 73%, the pest or weed control at 560 g/ha [2, 9] was 78% and the pest or weed control at 280 g/ha [2, 10] was 83%. It also gave a pest or weed control at 560 g/ha [2, 11] of 88%, a pest or weed control at 280 g/ha [2, 12] of 90% and a pest or weed control at 560 g/ha [2, 13] of 88%. For the same compound, the pest or weed control at 280 g/ha [3, 8] was 63%, the pest or weed control at 560 g/ha [3, 9] was 70% and the pest or weed control at 280 g/ha [3, 10] was 83%. The pest or weed control at 560 g/ha [3, 11] was 95%, the pest or weed control at 280 g/ha [3, 12] was 92% and the pest or weed control at 560 g/ha [3, 13] was 98%. The “TGA Data (rate of weight loss, volatility)” value [4] was 4.7 µg/min, the pest or weed control at 280 g/ha [5, 8] was 68% and the pest or weed control at 560 g/ha [5, 9] was 70%. For the same compound, the pest or weed control at 280 g/ha [5, 10] was 75%, the pest or weed control at 560 g/ha [5, 11] was 73% and the pest or weed control at 280 g/ha [5, 12] was 73%. It also gave a pest or weed control at 560 g/ha [5, 13] of 78%, a pest or weed control at 280 g/ha [6, 8] of 68% and a pest or weed control at 560 g/ha [6, 9] of 73%. The pest or weed control at 280 g/ha [6, 10] was 89%, the pest or weed control at 560 g/ha [6, 11] was 83% and the pest or weed control at 280 g/ha [6, 12] was 93%. For the same compound, the pest or weed control at 560 g/ha [6, 13] was 90%, the pest or weed control at 280 g/ha [7, 14] was 69% and the pest or weed control at 560 g/ha [7, 15] was 76%. The pest or weed control at 280 g/ha [7, 16] was 82%, the pest or weed control at 560 g/ha [7, 17] was 85% and the pest or weed control at 280 g/ha [7, 18] was 88%. It also gave a pest or weed control at 560 g/ha [7, 19] of 89%.

With CC(=O)/C(C)=N/OC(=O)COc1ccc(Cl)cc1Cl [Compound A8, 3-((2-(2,4-Dichlorophenoxy)acetoxy)imino)butan-2-one] the pest or weed control at 280 g/ha [1, 8] was 74%, the pest or weed control at 560 g/ha [1, 9] was 95% and the pest or weed control at 280 g/ha [1, 10] was 65%. It also gave a pest or weed control at 560 g/ha [1, 11] of 96%, a pest or weed control at 280 g/ha [1, 12] of 70% and a pest or weed control at 560 g/ha [1, 13] of 99%. The pest or weed control at 280 g/ha [2, 8] was 70%, the pest or weed control at 560 g/ha [2, 9] was 75% and the pest or weed control at 280 g/ha [2, 10] was 83%. For the same compound, the pest or weed control at 560 g/ha [2, 11] was 85%, the pest or weed control at 280 g/ha [2, 12] was 78% and the pest or weed control at 560 g/ha [2, 13] was 87%. It also gave a pest or weed control at 280 g/ha [3, 8] of 70%, a pest or weed control at 560 g/ha [3, 9] of 80% and a pest or weed control at 280 g/ha [3, 10] of 90%. The pest or weed control at 560 g/ha [3, 11] was 98%, the pest or weed control at 280 g/ha [3, 12] was 96% and the pest or weed control at 560 g/ha [3, 13] was 100%. The “TGA Data (rate of weight loss, volatility)” value [4] was 1 µg/min, the pest or weed control at 280 g/ha [5, 8] was 68% and the pest or weed control at 560 g/ha [5, 9] was 70%. It also gave a pest or weed control at 280 g/ha [5, 10] of 73%, a pest or weed control at 560 g/ha [5, 11] of 80% and a pest or weed control at 280 g/ha [5, 12] of 83%. The pest or weed control at 560 g/ha [5, 13] was 80%, the pest or weed control at 280 g/ha [6, 8] was 70% and the pest or weed control at 560 g/ha [6, 9] was 73%. The pest or weed control at 280 g/ha [6, 10] was 85%, the pest or weed control at 560 g/ha [6, 11] was 90% and the pest or weed control at 280 g/ha [6, 12] was 92%. It also gave a pest or weed control at 560 g/ha [6, 13] of 97%, a pest or weed control at 280 g/ha [7, 14] of 70% and a pest or weed control at 560 g/ha [7, 15] of 79%. It also gave a pest or weed control at 280 g/ha [7, 16] of 79%, a pest or weed control at 560 g/ha [7, 17] of 90% and a pest or weed control at 280 g/ha [7, 18] of 84%. The pest or weed control at 560 g/ha [7, 19] was 93%.
